Here are results for 6 compounds from US20120134977A1 (YEDA RESEARCH AND DEVELOPMENT CO. LTD., priority 2009, published 2012).

As usually defined, the IC50 is the point on the concentration scale where inhibition reaches its midpoint.

Experiment [1] addresses human serum albumin (HSA) (Homo sapiens, UniProt P02768). Description: Isothermal scanning calorimetry (ITC) of ligand association with HSA. To be noted: for Kd: ligand 400 μM injected into HSA 10 μM, PBS pH 7.4, 23° C., read-out: Association-constant to HSA K (Ka) (converted). Format: binding.
Method: The data was obtained for 15 automatic injections each of 2.7 The total duration of the experiments was 45 min (2A). […] Sample cell contained HSA at a concentration of 10 μM. Both components were dissolved in PBS-buffer pH=7.4. The experiment was conducted at 23° C.
(iv) Isothermal scanning calorimetry measurements were performed with iTC200 microcalorimeter (MicroCal LLC, Nothampton Mass., USA), according to the manufacturer's instructions.
The subject of experiment [2] is E. Coli. To be noted: previously disclosed (Shechter et al., 2002; Marcus et al., 2008); read-out: IC50, inhibition of E. Coli replication; cited from earlier work.
For experiment [3] the following is noted: background statement; cited from earlier work.
Experiment [4] has as its target HSA (Homo sapiens, UniProt P02768). To be noted: immobilized HSA binding strategy, Markusen et al., 1996; cited from earlier work.
Experiment [5] concerns CD1-mice. Particulars: at any dosage, previously described; cited from earlier work.

human serum albumin (HSA), sequence (P02768 25-609): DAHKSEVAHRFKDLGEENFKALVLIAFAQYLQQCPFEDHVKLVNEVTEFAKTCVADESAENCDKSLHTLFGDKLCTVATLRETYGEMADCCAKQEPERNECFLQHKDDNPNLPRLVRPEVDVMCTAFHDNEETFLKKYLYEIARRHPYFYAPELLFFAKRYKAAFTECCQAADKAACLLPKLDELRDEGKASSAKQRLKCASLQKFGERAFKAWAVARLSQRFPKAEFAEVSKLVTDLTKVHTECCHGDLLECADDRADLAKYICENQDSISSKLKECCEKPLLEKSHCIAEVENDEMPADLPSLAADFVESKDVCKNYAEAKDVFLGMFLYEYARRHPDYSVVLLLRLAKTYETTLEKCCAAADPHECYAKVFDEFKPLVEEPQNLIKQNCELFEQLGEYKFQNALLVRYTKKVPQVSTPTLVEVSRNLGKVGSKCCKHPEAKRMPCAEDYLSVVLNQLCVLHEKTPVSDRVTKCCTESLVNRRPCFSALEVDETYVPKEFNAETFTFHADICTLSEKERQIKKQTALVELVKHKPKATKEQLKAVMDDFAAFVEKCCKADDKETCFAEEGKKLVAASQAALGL
HSA, sequence (P02768 25-609): as above

As to `O=C(O)CCCCCCCCCCSC1CC(=O)NC1=O` (stereo not shown), the Kd in experiment [1] is 7.69 µM.

For the compound `O=C(O)CNC(=O)OCC1c2cc(NC(=O)CCN3C(=O)C=CC3=O)ccc2-c2ccc(S(=O)(=O)O)cc21` (stereo not shown) [Glycine-FMS-MAL, 2-(((2-(3-(2,5-dioxo-2,5-dihydro-1H-pyrrol-1-yl)propanamido)-7-sulfo-9H-fluoren-9-yl)methoxy)carbonylamino)acetic acid], the Kd in experiment [1] is 7.14 µM.

As for `O=C(O)CCCCCCCCCCCCCCCSC1CC(=O)NC1=O` (stereo not shown) [MAL-S—(CH2)15—COOH, 16-(2,5-dioxopyrrolidin-3-ylthio)hexadecanoic acid], the Kd in experiment [1] was 6.45 µM.

Gentamicin: the IC50 in experiment [2] was 2.1 ± 0.2 µM.

Regarding “N^εB29-tetradecanoyl des(B30) insulin [insulin-detemir]”, in experiment [1] (PBS pH 7.4), the “N (binding sites, OneSites model)” value was 0.693±0.0430 sites; the “ΔH of binding to HSA” value was -4.575 ± 0.4067 kcal/mol; the “ΔS of binding to HSA” value was 6.79 (cal/mol)/deg. Besides, in experiment [3], the duration of action entry is “up to 24 hours”. In addition, the “Ka, binding affinity to HSA” value in experiment [4] is 2.4±0.7×10^5 M^−1.

In the case of exendin-4, the “threshold decrease of circulating blood glucose level” value in experiment [5] is 27±3%.
